Laboratory results from patent US20080194620A1, “Use of Benzodiazepine Receptor Ligands For Combating Signs of Ageing” (L'OREAL, priority 2004, published 2008).

Columns and labels:
Type in all cases: cell-based
[1] = system: Normal human epidermal keratinocytes; assay: Synthesis of total epidermal glycosaminoglycans (incorporation of 3H-glucosamine); conditions: 1.5 mM, 72 h incubation
Protocol: Normal human epidermal keratinocytes are cultivated in SFM complete medium for 24 hours. The medium is then removed, and replaced with SFM medium without supplements containing the product PK11195 or the pharmacological reference. It is incubated for 72 h at 37° C. Tritiated glucosamine (D-[6-^3H]-glucosamine, Amersham TRK398 (1.3 Tbq/mmol, 35 Ci/mmol) is added for the last 24 hours of incubation. The glycosaminoglycans are extracted from the culture medium and from the deposited matrix, with a chaotropic buffer, then purified by ion-exchange chromatography. The radioactivity incorporated in the […] molecules (mostly GAGs) is counted by liquid scintillation. The results are expressed as percentage change in synthesis of the GAGs relative to the control.

[2] = system: Normal human epidermal keratinocytes; assay: Cellular viability of keratinocytes in the TGK1 differentiation cultures; conditions: 10^−6 M; medium with calcium (1.5 mM); 96 h culture; control = 100%
Protocol: (§1) Normal human epidermal keratinocytes are cultivated at 37° C. in keratinocyte-SFM medium (Gibco BRL 3701022) supplemented with EGF (epidermal growth factor) and pituitary extract, with or without calcium supplement (1.5 mM). After culture for 24 hours, the medium is replaced with medium containing the actives to be tested or reference substances. Culture is continued for 96 hours. The transglutaminase K1 (TGK1) activity is evaluated by radioassay, by measuring the covalent addition of tritiated putrescine to casein (acceptor protein) for 1 h 30 min at 37° C. The casein is precipitated with TCA (trichloroacetic acid) on a dry filter and then counted in liquid scintillation. The proteins in each sample are determined by means of a kit (BioRad 500-0116). Statistical analysis of the data is performed by analysis of variance (ANOVA) using Dunnett's multiple comparison test.
(§2) The molecule PK11195 (or 1-(2-chlorophenyl)-N-(1-methyl-propyl)-3-isoquinoline carboxamide), a specific inhibitor of the peripheral benzodiazepine receptor, was tested at respective concentrations of 10^−4 M and 10^−6 M. The active was added to the keratinocyte culture medium, containing calcium or not containing calcium. The effect of a medium alone containing 1.5 mM of calcium (pro-differentiation agent) was used as a positive control of differentiation. […]

[3] = system: Normal human epidermal keratinocytes; assay: Differentiation of keratinocytes: determination of transglutaminase K1 (TGK1) activity by radioassay
Protocol: as §1, §2

Row | Compound | Incorporation of 3H-glucosamine, CPM ([1]; control 10624 CPM) [CPM] | Incorporation of 3H-glucosamine, Percentage/control ([1]; p<0.01) [%] | Cellular viability [2] [%] | TGK1 activity ([3]; 10^−6 M, medium with calcium (1.5 mM), 96 h culture, control = 100%, *p<0.05) [%] | decrease in TGK1 activity ([3]; medium with retinol 10^−6 M (anti-differentiation reference)) [%]
1 | [Ca+2].[Cl-].[Cl-] [CaCl2] | 16791 | 158 |  |  | 
2 | CC1=C(/C=C/C(C)=C/C=C/C(C)=C/CO)C(C)(C)CCC1 [retinol] |  |  | 103 | 56 | −44
